Each block holds one molecule with its values, some of them ahead of it. Activity calls are given as the source filed them.
Tests used:
[1] = viability loss in THP-1 monocytes – THP-1 cells, cytotoxicity control for Vif-APOBEC3G degradation inhibitor project, dose response (AID 1117359); format: functional; settings: THP-1
Bcl-2-like protein 1 = Bcl-2-like protein 1 (Homo sapiens, UniProt Q07817); experiment: blockers of BCLXL peptide binding – biochemical, fluorescence polarization, 1536-well, selectivity assay for MCL1 inhibitor project, dose response (AID 2218)
[2] = biological target: Induced myeloid leukemia cell differentiation protein Mcl-1 (Homo sapiens, UniProt Q07820); experiment: blockers of MCL1 binding to BIM peptide – biochemical, fluorescence polarization, BIM-BH3 peptide, 1536-well, dose response (AID 2217)
Protein Tat = Protein Tat (Human immunodeficiency virus type 1 group M subtype B (isolate HXB2)(HIV-1), UniProt P04608); format: functional;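 also: tat binding to TAR RNA read out by fluorescence polarization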
[3] = HIV-1 Vif–A3G interaction blockers – biochemical, TR-FRET, GST-Vif 1-94, biotin-A3G peptide, dose response retest, primary screen (AID 1117319); format: functional;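 also: TR-FRET signal of purified GST-Vif binding a biotinylated A3G peptide; inhibitors lower the FRET signal by blocking Vif and A3G binding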
[4] = biological target: Mitogen-activated protein kinase 10 (Homo sapiens, UniProt P53779); experiment: Dose response biochemical screening assay for inhibitors of c-Jun N-Terminal Kinase 3 (JNK3). [Related pubchem assays: 746 ]
[5] = biological target: Peroxisome proliferator-activated receptor gamma/Nuclear receptor coactivator 3 (Homo sapiens, UniProt P37231); format: functional;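 also: agonist potency for raising coactivator recruitment to the receptor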
[6] = biological target: Peroxisome proliferator-activated receptor gamma/Nuclear receptor coactivator 1 (Homo sapiens, UniProt P37231); format: functional;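 also: agonist potency as compounds enhance coactivator SRC-1 recruitment to PPARgamma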
[7] = biological target: Peroxisome proliferator-activated receptor gamma/Nuclear receptor coactivator 2 (Homo sapiens, UniProt P37231); format: functional;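 also: agonist potency for raising coactivator recruitment to the receptor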
[8] = biological target: T1, Calpain-2 catalytic subunit (Sus scrofa, UniProt P43367); experiment: m-calpain protease blockers, concentration series – biochemical, fluorogenic peptide substrate, dose response (AID 1420); format: functional
T1 sequence (P43367 whole entry): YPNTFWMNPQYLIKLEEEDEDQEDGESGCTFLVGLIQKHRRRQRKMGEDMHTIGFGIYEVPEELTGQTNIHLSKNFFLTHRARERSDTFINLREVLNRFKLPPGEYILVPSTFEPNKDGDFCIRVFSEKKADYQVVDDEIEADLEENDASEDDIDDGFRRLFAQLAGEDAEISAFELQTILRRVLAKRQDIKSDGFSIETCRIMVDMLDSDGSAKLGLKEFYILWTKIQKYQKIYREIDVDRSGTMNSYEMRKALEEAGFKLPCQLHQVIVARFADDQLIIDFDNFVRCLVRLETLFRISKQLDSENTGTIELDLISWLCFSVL

Transthyretin = Transthyretin (Homo sapiens, UniProt P02766); experiment: Luminescence-based cell-based high throughput dose response assay to identify activators of Transthyretin (TTR) transcription.; format: functional
[9] = biological target: Heat shock protein HSP 90-alpha (Homo sapiens, UniProt P07900); experiment: Luminescence-based dose response biochemical high throughput screening assay for inhibitors of the Heat Shock Protein 90 (HSP90). [Related pubchem assays: 1831 (Summary AID.), 1846 (Confirmation screen.), 1789 (Primary screen.)]
[10] = biological target: Sphingosine 1-phosphate receptor 2 (Homo sapiens, UniProt O95136); experiment: Dose Response Cell Based Assay for Agonists of the S1P2 Receptor. [Related pubchem assays: 729, 736, 843 ]; format: functional
Sequence of Sphingosine 1-phosphate receptor 2 (O95136 whole entry): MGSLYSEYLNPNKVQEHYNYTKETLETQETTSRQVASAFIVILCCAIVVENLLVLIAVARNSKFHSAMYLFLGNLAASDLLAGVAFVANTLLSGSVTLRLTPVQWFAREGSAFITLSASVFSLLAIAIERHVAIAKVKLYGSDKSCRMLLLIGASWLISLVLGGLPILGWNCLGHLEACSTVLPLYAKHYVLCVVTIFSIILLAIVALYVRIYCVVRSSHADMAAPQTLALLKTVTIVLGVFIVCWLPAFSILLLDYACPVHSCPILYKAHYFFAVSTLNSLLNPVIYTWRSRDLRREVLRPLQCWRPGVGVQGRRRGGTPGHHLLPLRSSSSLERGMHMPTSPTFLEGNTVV

Sequence of Peroxisome proliferator-activated receptor gamma/Nuclear receptor coactivator 3 (P37231 whole entry): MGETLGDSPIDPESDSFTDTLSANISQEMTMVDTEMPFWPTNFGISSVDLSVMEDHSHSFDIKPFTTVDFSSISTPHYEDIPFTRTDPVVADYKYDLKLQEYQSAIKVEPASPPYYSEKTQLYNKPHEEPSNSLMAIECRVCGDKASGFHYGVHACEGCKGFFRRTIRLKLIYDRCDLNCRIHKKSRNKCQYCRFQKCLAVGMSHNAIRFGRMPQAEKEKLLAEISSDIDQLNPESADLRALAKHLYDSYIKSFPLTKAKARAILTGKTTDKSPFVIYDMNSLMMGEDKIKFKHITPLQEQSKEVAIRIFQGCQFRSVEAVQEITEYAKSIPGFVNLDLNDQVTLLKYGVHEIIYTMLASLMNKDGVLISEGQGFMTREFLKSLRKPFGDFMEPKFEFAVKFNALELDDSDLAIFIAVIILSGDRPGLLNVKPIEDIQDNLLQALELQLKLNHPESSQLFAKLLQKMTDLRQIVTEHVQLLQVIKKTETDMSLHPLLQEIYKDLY
Sequence of Peroxisome proliferator-activated receptor gamma/Nuclear receptor coactivator 3 (Q9Y6Q9 whole entry, further chain): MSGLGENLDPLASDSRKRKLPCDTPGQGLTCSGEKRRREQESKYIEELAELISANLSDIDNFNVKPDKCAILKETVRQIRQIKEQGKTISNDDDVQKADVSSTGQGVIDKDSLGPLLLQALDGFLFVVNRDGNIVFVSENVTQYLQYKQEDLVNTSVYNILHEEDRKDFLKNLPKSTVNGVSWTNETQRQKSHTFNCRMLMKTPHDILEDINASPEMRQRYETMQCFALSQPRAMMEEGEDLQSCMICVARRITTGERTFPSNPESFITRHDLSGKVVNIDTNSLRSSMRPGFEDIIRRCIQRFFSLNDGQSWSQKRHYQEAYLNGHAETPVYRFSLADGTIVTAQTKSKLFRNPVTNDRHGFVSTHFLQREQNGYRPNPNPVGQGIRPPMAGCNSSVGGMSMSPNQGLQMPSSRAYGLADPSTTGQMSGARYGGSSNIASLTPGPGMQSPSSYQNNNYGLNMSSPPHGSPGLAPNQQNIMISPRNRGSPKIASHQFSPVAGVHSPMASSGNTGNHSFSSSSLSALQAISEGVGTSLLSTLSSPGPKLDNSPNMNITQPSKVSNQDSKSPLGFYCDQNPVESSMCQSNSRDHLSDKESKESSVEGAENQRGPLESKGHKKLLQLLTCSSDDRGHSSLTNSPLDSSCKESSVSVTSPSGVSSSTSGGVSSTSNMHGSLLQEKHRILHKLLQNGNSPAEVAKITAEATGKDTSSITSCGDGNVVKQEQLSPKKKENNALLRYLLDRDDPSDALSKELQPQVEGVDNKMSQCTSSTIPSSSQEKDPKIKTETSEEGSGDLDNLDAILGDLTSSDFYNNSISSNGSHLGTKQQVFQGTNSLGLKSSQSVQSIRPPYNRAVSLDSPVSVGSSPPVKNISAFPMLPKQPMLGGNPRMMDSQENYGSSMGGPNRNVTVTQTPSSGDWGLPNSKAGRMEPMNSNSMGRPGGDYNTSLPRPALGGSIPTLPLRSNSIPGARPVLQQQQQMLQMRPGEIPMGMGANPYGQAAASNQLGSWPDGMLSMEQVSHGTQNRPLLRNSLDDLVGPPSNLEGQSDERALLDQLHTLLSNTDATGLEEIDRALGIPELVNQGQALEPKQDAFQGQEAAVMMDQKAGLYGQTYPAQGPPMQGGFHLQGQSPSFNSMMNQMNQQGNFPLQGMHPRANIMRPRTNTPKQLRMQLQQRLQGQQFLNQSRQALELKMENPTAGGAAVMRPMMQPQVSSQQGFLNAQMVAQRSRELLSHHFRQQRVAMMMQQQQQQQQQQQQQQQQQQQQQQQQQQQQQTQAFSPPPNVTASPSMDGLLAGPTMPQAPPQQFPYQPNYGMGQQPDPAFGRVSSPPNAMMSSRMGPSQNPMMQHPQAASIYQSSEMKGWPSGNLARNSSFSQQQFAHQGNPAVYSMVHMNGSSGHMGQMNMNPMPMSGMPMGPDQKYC
Sequence of Peroxisome proliferator-activated receptor gamma/Nuclear receptor coactivator 1 (P37231 whole entry): as the sequence (P37231 whole entry) above
Sequence of Peroxisome proliferator-activated receptor gamma/Nuclear receptor coactivator 1 (Q15788 whole entry, further chain): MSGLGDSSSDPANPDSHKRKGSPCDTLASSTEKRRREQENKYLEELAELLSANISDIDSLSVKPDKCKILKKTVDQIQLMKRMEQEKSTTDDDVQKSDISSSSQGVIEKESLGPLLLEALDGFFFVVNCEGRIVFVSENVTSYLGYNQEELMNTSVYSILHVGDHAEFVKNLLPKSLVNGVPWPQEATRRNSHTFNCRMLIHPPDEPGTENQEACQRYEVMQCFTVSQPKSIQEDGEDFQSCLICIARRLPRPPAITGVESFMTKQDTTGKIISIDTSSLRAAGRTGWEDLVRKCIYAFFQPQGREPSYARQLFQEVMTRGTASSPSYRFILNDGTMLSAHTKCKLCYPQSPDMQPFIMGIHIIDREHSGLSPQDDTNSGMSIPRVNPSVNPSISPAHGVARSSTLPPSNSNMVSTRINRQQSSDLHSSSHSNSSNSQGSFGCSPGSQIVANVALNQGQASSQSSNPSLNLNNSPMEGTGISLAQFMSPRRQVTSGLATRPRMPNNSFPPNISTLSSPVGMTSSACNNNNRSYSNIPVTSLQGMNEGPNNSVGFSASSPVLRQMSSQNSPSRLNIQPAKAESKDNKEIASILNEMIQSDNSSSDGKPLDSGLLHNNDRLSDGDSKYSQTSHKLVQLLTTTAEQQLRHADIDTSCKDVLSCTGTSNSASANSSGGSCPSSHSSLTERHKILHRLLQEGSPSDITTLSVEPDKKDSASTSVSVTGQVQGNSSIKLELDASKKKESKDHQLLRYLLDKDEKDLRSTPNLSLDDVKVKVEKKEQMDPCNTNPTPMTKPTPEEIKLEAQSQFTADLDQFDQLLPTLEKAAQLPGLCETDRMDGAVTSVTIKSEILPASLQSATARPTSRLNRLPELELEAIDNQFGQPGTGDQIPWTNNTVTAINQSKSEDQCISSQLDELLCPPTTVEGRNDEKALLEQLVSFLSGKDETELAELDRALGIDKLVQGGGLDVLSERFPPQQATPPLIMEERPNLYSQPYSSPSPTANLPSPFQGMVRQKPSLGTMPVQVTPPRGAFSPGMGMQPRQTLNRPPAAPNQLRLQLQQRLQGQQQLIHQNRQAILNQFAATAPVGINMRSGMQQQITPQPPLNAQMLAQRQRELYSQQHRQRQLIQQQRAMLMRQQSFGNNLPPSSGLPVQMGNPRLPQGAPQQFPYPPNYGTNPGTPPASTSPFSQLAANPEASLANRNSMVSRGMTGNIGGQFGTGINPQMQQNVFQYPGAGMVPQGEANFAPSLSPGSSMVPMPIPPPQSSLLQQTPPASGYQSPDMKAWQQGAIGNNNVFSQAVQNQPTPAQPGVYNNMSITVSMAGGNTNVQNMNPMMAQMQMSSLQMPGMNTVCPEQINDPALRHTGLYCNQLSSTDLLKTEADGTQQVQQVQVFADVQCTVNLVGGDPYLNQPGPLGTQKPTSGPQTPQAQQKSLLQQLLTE
Sequence of Induced myeloid leukemia cell differentiation protein Mcl-1 (Q07820 whole entry): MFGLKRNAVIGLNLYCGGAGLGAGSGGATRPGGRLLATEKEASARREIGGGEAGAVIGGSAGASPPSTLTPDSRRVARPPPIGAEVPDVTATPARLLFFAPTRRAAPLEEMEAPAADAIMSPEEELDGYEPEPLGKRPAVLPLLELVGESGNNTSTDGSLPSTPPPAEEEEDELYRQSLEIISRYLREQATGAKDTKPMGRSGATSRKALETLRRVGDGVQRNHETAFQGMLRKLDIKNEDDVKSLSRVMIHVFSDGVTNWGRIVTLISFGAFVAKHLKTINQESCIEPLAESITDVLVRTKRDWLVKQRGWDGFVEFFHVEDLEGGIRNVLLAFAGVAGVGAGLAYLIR
Sequence of Mitogen-activated protein kinase 10 (P53779 whole entry): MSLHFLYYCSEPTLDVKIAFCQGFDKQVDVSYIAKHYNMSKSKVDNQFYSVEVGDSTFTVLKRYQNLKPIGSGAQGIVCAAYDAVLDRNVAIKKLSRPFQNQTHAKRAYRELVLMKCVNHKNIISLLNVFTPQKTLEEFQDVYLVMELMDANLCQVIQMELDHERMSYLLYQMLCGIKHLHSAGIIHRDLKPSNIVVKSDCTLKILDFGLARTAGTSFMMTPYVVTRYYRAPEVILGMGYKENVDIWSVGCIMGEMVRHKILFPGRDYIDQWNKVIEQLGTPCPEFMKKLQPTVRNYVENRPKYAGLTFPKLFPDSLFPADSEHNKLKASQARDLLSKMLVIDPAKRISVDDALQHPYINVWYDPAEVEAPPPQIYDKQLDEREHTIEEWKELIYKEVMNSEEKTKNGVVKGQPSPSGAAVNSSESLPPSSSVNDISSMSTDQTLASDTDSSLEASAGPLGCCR

IC50 (Bcl-2-like protein 1): > 109 µM (not active)
IC50 [2]: > 109 µM (not active)
IC50 (Protein Tat): > 100 µM (inconclusive)
IC50 [3]: > 60.7 µM (active)
Structure (SMILES): O=C(c1cc(-c2ccco2)nn1-c1cccc(Cl)c1)N1CCCCC1
CC50 [1]: > 40 µM (active)

IC50 [9]: 4.79 µM (active)
Structure (SMILES): O=[N+]([O-])c1ccc(S(=O)(=O)N2CCN=C2SCc2ccc(F)cc2)cc1

Continued, molecule first:

Structure (SMILES): Cn1c(C(=O)NCc2ccco2)cc2c(=O)[nH]c3ccccc3c21
IC50 [4]: 31.4 µM (not active)
EC50 [5]: > 79.4 µM (not active)
EC50 [6]: > 79.4 µM (not active)
EC50 [7]: > 79.4 µM (not active)

Structure (SMILES): c1cc2c(cc1C1=Nn3c(nnc3C3CCCCC3)SC1)OCO2
IC50 [8]: 10.9 µM (not active)
EC50 (Transthyretin): > 167 µM (inactive)

Structure (SMILES): Cc1cccc(C(=O)NC2CC3CCCC(C2)N3C(=O)NC2CCCCC2)c1 (stereo not drawn)
EC50 [10]: > 50 µM (not active)

— ChEMBL document CHEMBL1201862, “PubChem BioAssay data set” (2004)
